{"source": "patent US11884961B2", "about": "“DNA-glycan conjugates and methods of use” (GEORGIA STATE UNIVERSITY RESEARCH FOUNDATION, INC., priority 2017, dated 2024)", "key": {"[1]": {"tested_on": "VK9, a mouse IgG anti-Globo H monoclonal antibody", "assay": "ELISA of biotinylated glycans captured on streptavidin against VK9", "format": "binding", "conditions": "biotinylated sugars captured on streptavidin; OD450", "excerpt": "(§1) Initially we validated the selected system with the conventional ELISA to confirm the antibody binding capacity and specificity of the glycans. Since sugars have low binding affinity for unmodified plastic surfaces, the binding protein, streptavidin, was used to capture biotinylated sugars. In another experiment we also tested DEGL using ELISA to see the effect of different presentation of glycans. For this assay, we coated the DEGL onto plastic surfaces directly. Both naked glycan and DEGL was tested against VK9, a mouse IgG anti-Globo H monoclonal antibody. […] We rationalize this difference in pattern to the different presentation of glycan epitope, all of the four glycans have the same terminal epitope of Fuc a1-2 Gal(b1-3 GalNAc), which is recognized by VK9 antibodies,[38] but a long DNA tag on the DEGL will give more space to the glycan antigens binding with the antibody, while normal ELISA would block the binding of the short glycans of Bb3 and Bb2. […]\n(§2) A 96-well plate (Costar® Polystyrene High Binding Plate 3590) was coated with […] of 10 ug/ml Streptavidin (Sigma) in 0.01 M PBS (pH 7.4) at 4° C. overnight. […] The plate was then read at OD450 with a plate reader (PerkinElmer®, 2030 Multilabel Reader Victor®). The result was calculated by minus OD450 value of control (no antibody)."}, "[2]": {"tested_on": "VK9 antibody", "assay": "Multiplex detection of DEGL against VK9 antibody by NGS", "format": "binding, mouse", "description": "Next, we wanted to translate the results to more promising NGS based parallel screening. Initially we tested the different concentrations of DEGL with different concentrations of VK9 antibody using the PCR and qPCR assays. We incubated 1 uM, 500 nM, 100 nM and 10 nM samples with 0.5 μL, 1 μL, and 2 μL of the VK9 antibody (0.5 μg/μL), and unbound glycans were washed out after precipitating the bound glycan-VK9 complex on protein A/G beads. Each assay was compared to the same amount of DEGL with no VK9 negative control. Then, washed beads were used as the template for the NGS analysis. Briefly, beads were diluted to 20 μL, and from this, 2 μL was used for the initial PCR amplification (18 cycles). PCR products were then purified using AMpure beads (Beckman Coulter) according to the manufacturer's protocol and used for the NGS fusion PCR to incorporate the index codes and ion-torrent NGS adapters. Now about 150 bp DNA codes, it was again purified using AMpure beads, and all barcoded samples were run through an Agilent Bioanalyzer for quality control. Samples were then pooled in equimolar concentration and adjusted to the desired 26 pM for the NGS, analyzed using ion-PGM semiconductor sequencer. Data were analyzed using ‘FASTAPTAMER’ software,[39] and an in house developed program. […]"}, "[3]": {"tested_on": "VK9, a mouse IgG anti-Globo H monoclonal antibody", "assay": "ELISA of DEGL (glycan-DNA codes coated with Pierce DNA coating solution) against VK9", "format": "binding", "conditions": "glycan-DNA conjugates coated directly onto plastic; OD450", "excerpt": "as §1, §2"}}, "data": [{"substance": "Globo-H [GbH]", "values": [{"measurement": "ELISA binding intensity of VK9", "setting": "[1]", "value": "very high binding intensities"}, {"measurement": "relative enrichment in comparison with the no VK9 negative control", "setting": "[2]; biotin tagged secondary antibody, magnetic streptavidin beads, NGS", "value": "enriched"}, {"measurement": "enrichment (NGS)", "setting": "[2]; modified method with control sequence added after selection, Globo-H series+A and B glycan DEGL", "value": "selective enrichment"}, {"measurement": "ELISA binding of VK9", "setting": "[3]", "value": "strong binding"}]}]}
